Assay results from patent publication US20230416205A1, “COMPOUNDS, COMPOSITIONS, AND METHODS” (Denali Therapeutics Inc, priority 2020, published 2023).
pIC50: −log10 of the molar value. Where two headings read alike, the source gives them in different places.

Test system: NLRP3
Assay: IL-1β secretion assay in PMA-differentiated, LPS/nigericin-stimulated THP-1 cells (384-well, ELISA read-out)
Format: cell-based, human
Description: Compounds as provided herein were tested in the following assay. Cell culture medium employed contained RPMI 1640 medium (89%), FBS (10%), Pen/Strep (1%), and 2-mercaptoethanol (0.05 mM). Freezing medium was made up of 90% FBS and 10% DMSO. THP-1 cells were removed from the liquid nitrogen and placed into a 37° C. water bath to thaw, until signs of ice dissipated. The cells were then added to 9 mL of warm cell culture medium and centrifuged for 5 minutes at 1000 rpm. The supernatant was discarded, and the cells were resuspended in new cell culture medium. THP-1 cells were then split and cultured in the cell culture medium, being passaged every 2-3 days with the cell density will be maintained between 5×10^5 and 1.5×10^6 viable cells/mL.
To freeze, cells were resuspended with fresh freezing medium, adjusting the cell density to 5×10^6 cells/mL. The cell suspension was partitioned into 1 mL aliquots per vial, and the vials were transferred to a −80° C. freezer. After one day at −80° C., the cell vials were transferred to liquid nitrogen freezer for storage.
PMA was dissolved in DMSO to make a stock solution at 5 mg/mL and stored in 10 μl aliquots at −20° C. for single use. PMA is added to normal growth medium. LPS was diluted with 1 mL of water solution to provide a 1 mg/mL stock solution and stored in 15 μl aliquots at −20° C. for single use. Nigericin is diluted in ice cold 100% ethanol to 5 mg/mL (6.7 mM) and stored in 75 μL aliquots at −20° C. for single use. Serum-free media contains RPMI 1640 medium (99%), Pen/Strep (1%), and 2-mercaptoethanol (0.05 mM). The two control conditions used to qualify and normalize test compound dose-response curves were as follows: High Control=25 ng/mL LPS, 5 μM Nigericin, 0.5% DMSO, Low Control=25 ng/mL, LPS, 0.5% DMSO.
THP-1 cells were diluted to provide a suspension at a concentration of 1.0×10^6 cells/mL with the total volume of suspension required to enable the desired number of assay plates. The growth media was supplemented with PMA (5 ng/mL final concentration) and the cells were incubated at 37° C. under a humidified atmosphere of 5% CO2 for 40 h.
All media was carefully aspirated from each culture flask. The cells were washed carefully with 1×DPBS. The cells were then briefly digested with trypsin LE for 5 minutes at 23° C., and immediately resuspended in cell growth media. After resuspension, the cells were centrifuged at 1000 rpm for 3 minutes and the supernatant was discarded. The cells were resuspended in DPBS and once again centrifuged at 1000 rpm for 5 minutes. The supernatant was discarded and the cell pellet was resuspended in serum-free media supplemented with LPS (25 ng/mL final concentration) to enable the distribution of 30K THP-1 cells within 45 μL of media into each well of 384-well PDL-coated plates. The 384-well plates were then incubated at 37° C. under a humidified atmosphere of 5% CO2 for 2 h. Following this period, test compounds were dispensed by Tecan across the desired concentration range with all wells normalized to a final 0.5% DMSO concentration. The plates were then incubated at 37° C. under a humidified atmosphere of 5% CO2 for 1 h. Following this period, 5 μL of the […] was added to each of the appropriate wells and plates were centrifuged at 1000 rpm for 30 seconds. The plates were the immediately reintroduced to the incubator at 37° C. under a humidified atmosphere of 5% CO2 for 2 h. After this time, 35 μL/well of supernatant was collected and transferred into v-bottom plate and centrifuged at 1000 rpm for 1 minute. These supernatant aliquots were analyzed using an IL-Iβ detection kit as described below. If needed, the test samples could be snap frozen and stored at −80° C. until analyzed.
To prepare each ELISA plate, capture antibody (mAb Mt175) was diluted with PBS to a final concentration of 2 μg/mL and then 20 μL of this solution was added to each well of the ELISA plate. Each plate was allowed to incubate overnight at 4° C.

[1] = Homo sapiens, THP-1, IL-1β secretion, PMA-differentiated THP-1 cells, LPS then nigericin stimulation, ELISA read at 450 nm, read-out: Activity
[2] = Table 4, IL-1β secretion, LPS/nigericin-stimulated THP-1 cells, read-out: IC50
[3] = IL-1β secretion, PMA-differentiated THP-1 cells, LPS then nigericin stimulation, ELISA read at 450 nm, read-out: Activity

SMILES	pIC50 [1]	pIC50 [2]	pIC50 [3]
N#C[C@H]1C[C@@]12CN(CC(=O)Nc1ncc(F)cn1)C(=O)c1ccc(Br)cc12 (single isomer, unassigned) [Example 286, 2-[(2′s,4r)-6-bromo-2′-cyano-1-oxospiro[3H-isoquinoline-4,1′-cyclopropane]-2-yl]-N-(5-fluoropyrimidin-2-yl)acetamide]	> 5.00	5.71	
N#C[C@H]1C[C@@]12CN(CC(=O)Nc1ncc(F)cn1)C(=O)c1ccc(Br)cc12 (single isomer, unassigned) [Example 287, 2-[(2′s,4r)-6-bromo-2′-cyano-1-oxospiro[3H-isoquinoline-4,1′-cyclopropane]-2-yl]-N-(5-fluoropyrimidin-2-yl)acetamide]		6.60	> 5.00
O=C(CN1CC2(CC2(F)F)c2c(ccc(Br)c2F)C1=O)Nc1ncc(F)cn1 (single isomer, unassigned) [Example 288, N-(5-fluoropyrimidin-2-yl)-2-[6-bromo-1′,1′,5-trifluoro-1-oxospiro[3H-isoquinoline-4,2′-cyclopropane]-2-yl]acetamide]	4.82 to 5.00	4.81	
O=C(CN1CC2(CC2(F)F)c2c(ccc(Br)c2F)C1=O)Nc1ncc(F)cn1 (single isomer, unassigned) [Example 289, N-(5-fluoropyrimidin-2-yl)-2-[6-bromo-1′,1′,5-trifluoro-1-oxospiro[3H-isoquinoline-4,2′-cyclopropane]-2-yl]acetamide]		7.57	> 5.00
O=C(CN1CC2(CC2(F)F)c2cc(Br)ccc2C1=O)Nc1ncc(F)cn1 (single isomer, unassigned) [Example 290, 2-[6-bromo-1′,1′-difluoro-1-oxospiro[3H-isoquinoline-4,2′-cyclopropane]-2-yl]-N-(5-fluoropyrimidin-2-yl)acetamide]	> 5.00	5.43	
O=C(CN1CC2(CC2(F)F)c2cc(Br)ccc2C1=O)Nc1ncc(F)cn1 (single isomer, unassigned) [Example 291, 2-[6-bromo-1′,1′-difluoro-1-oxospiro[3H-isoquinoline-4,2′-cyclopropane]-2-yl]-N-(5-fluoropyrimidin-2-yl)acetamide]		7.43	> 5.00
O=C(CN1CC(CF)c2cc(Br)ccc2C1=O)Nc1ncc(F)cn1 (single isomer, unassigned) [Example 292, 2-[6-bromo-4-(fluoromethyl)-1-oxo-3,4-dihydroisoquinolin-2-yl]-N-(5-fluoropyrimidin-2-yl)acetamide]	> 5.00	5.40	
O=C(CN1CC(CF)c2cc(Br)ccc2C1=O)Nc1ncc(F)cn1 (single isomer, unassigned) [Example 293, 2-[6-bromo-4-(fluoromethyl)-1-oxo-3,4-dihydroisoquinolin-2-yl]-N-(5-fluoropyrimidin-2-yl)acetamide]		6.87	> 5.00
O=C(CN1CC(C(F)F)c2c(ccc(Br)c2F)C1=O)Nc1ncc(F)cn1 (single isomer, unassigned) [Example 295, 2-[6-bromo-4-(difluoromethyl)-5-fluoro-1-oxo-3,4-dihydroisoquinolin-2-yl]-N-(5-fluoropyrimidin-2-yl)acetamide]	4.82 to 5.00	4.89	
O=C(CN1CC(C(F)F)c2c(ccc(Br)c2F)C1=O)Nc1ncc(F)cn1 (single isomer, unassigned) [Example 296, 2-[6-bromo-4-(difluoromethyl)-5-fluoro-1-oxo-3,4-dihydroisoquinolin-2-yl]-N-(5-fluoropyrimidin-2-yl)acetamide]		6.46	> 5.00
O=C(CN1CC(C(F)(F)F)c2c(ccc(Br)c2F)C1=O)Nc1ncc(F)cn1 (single isomer, unassigned) [Example 297, 2-[6-bromo-5-fluoro-1-oxo-4-(trifluoromethyl)-3,4-dihydroisoquinolin-2-yl]-N-(5-fluoropyrimidin-2-yl)acetamide]	4.82 to 5.00	4.84	
